Assay results from publication PMC7395068, “The evolution of strategies to minimise the risk of human drug-induced liver injury (DILI) in drug discovery and development” (Archives of Toxicology, 2020).
Where two headings read alike, the source gives them in different places.

Experiments:
[1] = Plasma free fraction (fu) and unbound Cmax (Cmax,u); type: in vitro ADME, human; details: unbound plasma Cmax
Protocol: The prediction of DILI severity was evaluated further using the 3D combined HCI assays using plasma-free fraction. The majority of fu values were obtained from literature, when unavailable in-house prediction was utilised. Unbound plasma Cmax concentrations (Cmax,u) were derived by multiplying total plasma Cmax with the corresponding free fraction (fu) for each compound.

hLiMTs [2] = details: cited from earlier work; for hLiMTs ATP <100uM: In vitro Assay, ref Proctor 2017; for hLiMTs/100xCmax, Proctor (2017) / hLiMTs/100uM, Proctor (2017): ATP, ref Proctor et al. 2017; for hLiMTs/100xCmax, Proctor (2017): IC50 < 100 × Cmax.tot; for hLiMTs/100uM, Proctor (2017): IC50 threshold 100 µM
[3] = system: THLE or HepG2 cells, isolated mitochondria, BSEP; details: cited from earlier work
[4] = cited from earlier work; for DILI severity category (Chen et al. [2016]): LTKB DILIrank category; for DILI severity category (Chen et al. [2016]) / DILI severity category (Chen 2016): ref Chen et al. 2016; for DILI severity category (Chen 2016): human DILI classification, LTKB DILIrank
PHH = details: cited from earlier work; for PHH/100xCmax, Proctor (2017) / PHH/100uM, Proctor (2017): 2D PHH, ATP, ref Proctor et al. 2017; for PHH/100xCmax, Proctor (2017): IC50 < 100 × Cmax.tot; for PHH/100uM, Proctor (2017): IC50 threshold 100 µM; for PHH ATP <100uM: In vitro Assay, ref Proctor 2017
[5] = plasma free fraction; cited from earlier work
[6] = read-out: Human plasma Cmax; total plasma Cmax.tot, median of 9 literature references; cited from earlier work
hLiMTs [7] = test: Combined HCI (HCS) and cellular ATP 3D assay in hLiMTs; details: for AC50 / minimal effective concentration: Homo sapiens; for DILI prediction hLiMTs (HCS-MEC): Microtissue model structural based (HCI), combined HCS and ATP, MEC < 25 × Cmax.tot cut-off; for hLiMTs <25x Avg Cmax ATP / hLiMTs <100x Avg Cmaxu ATP: ATP endpoint; for hLiMTs <25x Avg Cmax ATP / hLiMTs <25x Avg Cmax HCS / hLiMTs <25x Avg Cmax All: cut-off <25x Avg Cmax; for hLiMTs <100x Avg Cmaxu ATP / hLiMTs <100x Avg Cmaxu HCS / hLiMTs <100x Avg Cmaxu All: cut-off <100x Avg Cmaxu; for hLiMTs <25x Avg Cmax HCS / hLiMTs <100x Avg Cmaxu HCS: HCS endpoints; for hLiMTs <25x Avg Cmax All: all endpoints (ATP and HCS); for hLiMTs Cmax max All / hLiMTs Cmax min All / hLiMTs <10 uM All / hLiMTs <100x Avg Cmaxu All: all endpoints; for hLiMTs Cmax max All: Cmax max used; for hLiMTs Cmax min All: Cmax min used; for hLiMTs <10 uM All: cut-off <10 uM
[8] = system: HepG2 C3A spheroid, BSEP, Glu/Gal in HepG2 cells, bioactivation; details: cited from earlier work; for Bayesian Machine Learning DILI prediction, Williams (2019): Bayesian modeling, ref Williams et al. 2019; for Bayesian Machine Learning: In vitro Assay, ref Williams 2019
[9] = cited from earlier work; for Assigned DILI category: Chen et al. 2016 or literature alignment, ref Chen et al. 2016
[10] = system: primary human hepatocytes, NIH3T3 fibroblasts, BSEP, CYP3A4; details: cited from earlier work
HepaRG spheroids = test: Combined HCI (HCS) and cellular ATP 3D assay in HepaRG spheroids; details: for HepaRG <25x Avg Cmax ATP / HepaRG <100x Avg Cmaxu ATP: ATP endpoint; for HepaRG <25x Avg Cmax ATP / HepaRG <25x Avg Cmax HCS / HepaRG <25x Avg Cmax All: cut-off <25x Avg Cmax; for HepaRG <100x Avg Cmaxu ATP / HepaRG <100x Avg Cmaxu HCS / HepaRG <100x Avg Cmaxu All: cut-off <100x Avg Cmaxu; for HepaRG <25x Avg Cmax HCS / HepaRG <100x Avg Cmaxu HCS: HCS endpoints; for HepaRG <25x Avg Cmax All: all endpoints (ATP and HCS); for HepaRG Cmax max All / HepaRG Cmax min All / HepaRG <10 uM All / HepaRG <100x Avg Cmaxu All: all endpoints; for HepaRG Cmax max All: Cmax max used; for HepaRG Cmax min All: Cmax min used; for HepaRG <10 uM All: cut-off <10 uM; for AC50 / minimal effective concentration: Homo sapiens; for HepaRG <25x Avg Cmax ATP / HepaRG <100x Avg Cmaxu ATP / HepaRG <25x Avg Cmax HCS / HepaRG <100x Avg Cmaxu HCS / HepaRG <25x Avg Cmax All / HepaRG Cmax max All / HepaRG Cmax min All / HepaRG <10 uM All / HepaRG <100x Avg Cmaxu All / AC50 / minimal effective concentration: HepaRG; for DILI prediction HepaRG spheroids (HCS-MEC): Microtissue model structural based (HCI), combined HCS and ATP, MEC < 25 × Cmax.tot cut-off
human hepatocytes = details: cited from earlier work
PHH spheroids = details: cited from earlier work
[11] = Modeled in vitro assays (cytotoxicity, mitochondrial dysfunction, BSEP), ref Aleo et al. 2019
[12] = human DILI severity, ref Chen et al.
[13] = In vitro Assay, ref Schadt 2015

CCN(CC)C(=O)/C(C#N)=C/c1cc(O)c(O)c([N+](=O)[O-])c1 [entacapone]
115 µM: AC50 (HepaRG spheroids; read-out: ATP endpoint AC50)
-VE: hLiMTs ATP <100uM (hLiMTs [2]) | hLiMTs/100uM, Proctor (2017) (hLiMTs [2]) | Rule of Two hybrid HRM Score ≥8, Aleo (2019) [3, 11] | PHH/100uM, Proctor (2017) (PHH) | Bayesian Machine Learning DILI prediction, Williams (2019) [8] | Bayesian Machine Learning [8] | In vivo DILI ([9]; ref Proctor 2017) | In vivo DILI ([9]; ref Schadt 2015) | In vivo DILI ([9]; ref Williams 2019) | DILI in vitro assay prediction, Schadt (2015) ([10]; BSEP & Metabolism based, ref Schadt et al. 2015) | Cellular toxicity (3T3 cells) [10, 13] | Combined Assay [10, 13] | GSH adduct HML [10, 13] | Hepatocyte cellular toxicity [10, 13] | MitoTox 3T3 [10, 13] | TDI CYP3A4 [10, 13] | hBSEP inhibition [10, 13]
+VE (Partition Hybrid HRM Score ≥8): Partition Hybrid HRM Score ≥8, Aleo (2019) [3, 11]
-ve: hLiMTs <25x Avg Cmax ATP (hLiMTs [7]) | hLiMTs <100x Avg Cmaxu ATP (hLiMTs [7]) | hLiMTs <100x Avg Cmaxu HCS (hLiMTs [7]) | hLiMTs Cmax min All (hLiMTs [7]) | hLiMTs <10 uM All (hLiMTs [7]) | hLiMTs <100x Avg Cmaxu All (hLiMTs [7]) | HepaRG <100x Avg Cmaxu ATP (HepaRG spheroids) | HepaRG <100x Avg Cmaxu HCS (HepaRG spheroids) | HepaRG <10 uM All (HepaRG spheroids) | HepaRG <100x Avg Cmaxu All (HepaRG spheroids)
150 µM: AC50 (hLiMTs [7]; read-out: ATP endpoint AC50)
+VE (Rule of Two hybrid HRM Score ≥3): Rule of Two hybrid HRM Score ≥3, Aleo (2019) [3, 11]
45.5 µM: minimal effective concentration (HepaRG spheroids; read-out: ATP endpoint MEC)
139 µM: AC50 (hLiMTs [7]; read-out: HCS endpoint AC50)
129 µM: AC50 (HepaRG spheroids; read-out: HCS endpoint AC50)
+VE: Partition Hybrid HRM Score ([3]; In vitro Assay, ref Aleo 2019) | Ro2 Hybrid HRM Score ([3]; In vitro Assay, ref Aleo 2019) | DILI +VE (5-8), DILI -VE (-4) ([4]; ref Chen 2016) | In vivo DILI ([9]; ref Aleo 2019)
88.8 µM: minimal effective concentration (hLiMTs [7]; read-out: HCS endpoint MEC)
+ve: hLiMTs <25x Avg Cmax HCS (hLiMTs [7]) | hLiMTs <25x Avg Cmax All (hLiMTs [7]) | hLiMTs Cmax max All (hLiMTs [7]) | HepaRG <25x Avg Cmax ATP (HepaRG spheroids) | HepaRG <25x Avg Cmax HCS (HepaRG spheroids) | HepaRG <25x Avg Cmax All (HepaRG spheroids) | HepaRG Cmax max All (HepaRG spheroids) | HepaRG Cmax min All (HepaRG spheroids)
3590 nM: Cmax [6]
0.020: fu [5]
+VE (IC50 < 100 × Cmax.tot): hLiMTs/100xCmax, Proctor (2017) (hLiMTs [2]) | PHH/100xCmax, Proctor (2017) (PHH)
72 nM: Human plasma Cmax,u [1]
+VE (IC50 threshold of 100 µM): PHH ATP <100uM (PHH)
125 µM: minimal effective concentration (hLiMTs [7]; read-out: ATP endpoint MEC)
45.4 µM: minimal effective concentration (HepaRG spheroids; read-out: HCS endpoint MEC)
+VE (Partition Hybrid HRM Score ≥4): Partition Hybrid HRM Score ≥4, Aleo (2019) [3, 11]
vLess-DILI-Concern: DILI severity category ([4]; ref Chen 2016)
Less: DILI severity category (Chen et al. [2016]) [4] | DILI severity category (Chen 2016) [4] | DILI severity category [4, 12]
2: Assigned DILI category [9]
+VE (MEC < 25 × Cmax.tot cut-off): DILI prediction hLiMTs (HCS-MEC) (hLiMTs [7]) | DILI prediction HepaRG spheroids (HCS-MEC) (HepaRG spheroids)

CC(C)(C)NCC(O)COc1cccc2c1CC(O)C(O)C2 (stereo not drawn) [nadolol]
294 nM: Human plasma Cmax,u [1]
-ve: hLiMTs <25x Avg Cmax ATP (hLiMTs [7]) | hLiMTs <100x Avg Cmaxu ATP (hLiMTs [7]) | hLiMTs <25x Avg Cmax HCS (hLiMTs [7]) | hLiMTs <100x Avg Cmaxu HCS (hLiMTs [7]) | hLiMTs <25x Avg Cmax All (hLiMTs [7]) | hLiMTs Cmax max All (hLiMTs [7]) | hLiMTs Cmax min All (hLiMTs [7]) | hLiMTs <10 uM All (hLiMTs [7]) | hLiMTs <100x Avg Cmaxu All (hLiMTs [7]) | HepaRG <25x Avg Cmax ATP (HepaRG spheroids) | HepaRG <100x Avg Cmaxu ATP (HepaRG spheroids) | HepaRG <25x Avg Cmax HCS (HepaRG spheroids) | HepaRG <100x Avg Cmaxu HCS (HepaRG spheroids) | HepaRG <25x Avg Cmax All (HepaRG spheroids) | HepaRG Cmax max All (HepaRG spheroids) | HepaRG Cmax min All (HepaRG spheroids) | HepaRG <10 uM All (HepaRG spheroids) | HepaRG <100x Avg Cmaxu All (HepaRG spheroids)
1: Assigned DILI category [9]
Ambiguous DILI-concern: DILI severity category ([4]; ref Chen 2016)
Ambiguous: DILI severity category (Chen et al. [2016]) [4] | DILI severity category (Chen 2016) [4] | DILI severity category [4, 12]
0.700: fu [5]
420 nM: Cmax [6]
-VE: hLiMTs ATP <100uM (hLiMTs [2]) | hLiMTs/100xCmax, Proctor (2017) (hLiMTs [2]) | hLiMTs/100uM, Proctor (2017) (hLiMTs [2]) | DILI +VE (5-8), DILI -VE (-4) ([4]; ref Chen 2016) | PHH/100xCmax, Proctor (2017) (PHH) | PHH/100uM, Proctor (2017) (PHH) | PHH ATP <100uM (PHH) | Structural based (HCI) (human hepatocytes; In vitro Assay, ref Xu 2008) | DILI in vitro assay prediction, Xu (2008) (human hepatocytes; Structural based (HCI), human hepatocytes, ref Xu et al. 2008) | DILI prediction hLiMTs (HCS-MEC) (hLiMTs [7]) | Bayesian Machine Learning DILI prediction, Williams (2019) [8] | Bayesian Machine Learning [8] | In vivo DILI ([9]; ref Proctor 2017) | In vivo DILI ([9]; ref Vorrink 2018) | In vivo DILI ([9]; ref Williams 2019) | In vivo DILI ([9]; ref Xu 2008) | DILI prediction HepaRG spheroids (HCS-MEC) (HepaRG spheroids) | hLiMTs ATP <20 x Cmax (PHH spheroids; In vitro Assay, ref Vorrink 2018) | DILI in vitro assay prediction, Vorrink (2018) (PHH spheroids; PHH spheroids, ATP, 14 days, IC20 < 20 × Cmax.tot, ref Vorrink et al. 2018)
